According to US8338414B2, “Immunosuppressive agent and anti-tumor agent comprising heterocyclic compound as active ingredient” (Zenyaku Kogyo KabushikiKaisha, priority 2005, dated 2012):
Read-outs that look alike come from different tables or passages of the source.

Columns and labels:
[1] = tested on: U 937 cells; experiment: Proliferation inhibitory activity on hematologic neoplasm cells, U937; format: cell-based; settings: Homo sapiens, U-937, 72 h; 3 days, Alamar Blue
[2] = tested on: HL 60 cells; experiment: Proliferation inhibitory activity on hematologic neoplasm cells, HL60; format: cell-based; settings: Homo sapiens, HL-60, 72 h; 3 days, Alamar Blue
[3] = tested on: Jurkat cells; experiment: Proliferation inhibitory activity on hematologic neoplasm cells, Jurkat; format: cell-based; settings: Homo sapiens, Jurkat, 72 h; 3 days, Alamar Blue
[4] = tested on: mouse spleen cells; experiment: Proliferation inhibition assay for mouse spleen cells; format: cell-based; settings: 72 h, 3 days, Alamar Blue
Method in brief: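 C57BL/6N female mouse spleen cells (2×10^6 cells/mL) stimulated with Con A (3 μg/mL), LPS (100 μg/mL) or anti-mouse IgM (100 μg/mL) alongside serially diluted compounds, 3 days at 37° C, 5% CO2. Alamar Blue added for a further day; fluorescence read at ex 530/em 590 nm.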

[5] = tested on: THP-1 cells; experiment: Proliferation inhibitory activity on hematologic neoplasm cells, THP-1; format: cell-based; settings: Homo sapiens, THP-1, 72 h; 3 days, Alamar Blue
[6] = tested on: allogeneic mixed lymphocyte reaction; experiment: Allogeneic mixed lymphocyte reaction; format: cell-based, mouse; settings: Mus musculus, Lymphocyte; C57BL/6N spleen stimulator cells, BALB/c lymph node responder cells, 86 hours, BrdU
Method in brief: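 Stimulators were C57BL/6N female spleen cells and responders BALB/c female peripheral lymph node mononuclear cells (mice 8-10 weeks old). Cells suspended at 2×10^6 cells/mL in RPMI 1640 with 10% FBS and antibiotics.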

[7] = tested on: Daudi cells; experiment: Proliferation inhibitory activity on hematologic neoplasm cells, Daudi; format: cell-based; settings: Homo sapiens, Daudi, 72 h; 3 days, Alamar Blue
[8] = Toxicologic test for single oral administration; settings: rat, in vivo, po, 1200 mg/kg
[9] = tested on: Salmonella typhimurium TA98, TA100, TA1535, TA1537 and Escherichia coli WP2uvrA; experiment: Ames test; format: cell-based; settings: preincubation method, with or without S-9, up to 5000 μg/flat plate
Protocol: Using 5 strains of Salmonella typhimurium TA98, TA100, TA1535, TA1537 and Escherichia coli WP2uvrA, the test substances (Compound 4, Compound 19, Compound 22 and Compound 24) were tested for their mutagenesis according to a preincubation method.

[10] = tested on: human peripheral blood mononuclear cells; experiment: Activation inhibition assay for human peripheral blood mononuclear cells (CD40L, CD69 expression); format: cell-based; settings: PBMC, anti-CD3 + anti-CD28, 6 hours, flow cytometry
Protocol: In accordance with the method of Assay Example 2, PBMC (2×10^6 cells/mL) was isolated from human peripheral blood, suspended in RPMI 1640 medium (containing 10% fetal bovine serum, 10 mM HEPES, 1 mM pyruvic acid, and 4.5 g/L glucose), and seeded in wells of a 96 well plate at 0.225 mL per well. The test substances were added to respective wells, and then an anti-CD3 antibody (2 μg/mL) and an anti-CD28 antibody (1 μg/mL) were added. Then, after incubation under conditions of carbon dioxide 5% at a temperature 37° C. for 6 hours, the expressions of CD40L and CD69, activation markers, were analysed by flow cytometry. As a result, when the cells were stimulated by both an anti-CD3 antibody and an anti-CD28 antibody, CD40L was expressed on 14.4% of PBMC, which was also CD4 positive. However, the proportion of the cells which expressed CD40L decreased when the cells had been treated with test substances (Compound 4: 4.9%; Compound 20: 3.7%, Compound 24: 3.6%).

[11] = tested on: Rabbit synoviocytes HIG-82; experiment: Inhibition assay for proliferation of rabbit synoviocyte; format: cell-based; settings: Oryctolagus cuniculus, 72 h; HIG-82, 3 days, Alamar Blue
[12] = tested on: fulminant hepatitis; experiment: Fulminant hepatitis model (galactosamine and LPS); format: in vivo, mouse; settings: BALB/c mice, galactosamine 800 mg/kg and LPS 110 μg/kg i.p.
Protocol: BALB/c male mice (7 weeks old, purchased from Charles River Laboratories Japan Inc.) were used in the experiment. After having orally administered the test substances suspended in 5% HPC, galactosamine (800 mg/kg) and LPS (110 μg/kg) were intraperitoneally administered. Then, survival rates at 72 hours after administration were obtained.

In the case of `FC(F)c1nc2ccccc2n1-c1nc(N2CCOCC2)nc(N2CCOCC2)n1` [Compound 4, 2-(2-Difluoromethylbenzimidazol-1-yl)-4,6-dimorpholino-1,3,5-triazine], the IC50 [1] is reported as 3240 nM, the IC50 [2] is reported as 1120 nM and the IC50 [3] is reported as 1950 nM. The IC50 ([4]; LPS 100 μg/mL, read-out: Inhibition of LPS response) was 1 to 100 nM, the IC50 ([4]; anti-mouse IgM antibody 100 μg/mL, read-out: Inhibition of Anti-IgM antibody response) was 1 to 100 nM and the IC50 ([4]; concanavalin A 3 μg/mL, read-out: Inhibition of Con A response) was 1 to 100 nM. The IC50 [5] was 511 nM, the IC50 [6] was 218 nM and the IC50 [7] was 105 nM. The “death after single oral dose” value [8] was “no examples of death were recognized”, the “mutagenesis (colony number of reverse mutation)” value [9] was “negative” and the “proportion of the cells which expressed CD40L” value ([10]; CD4 positive, 14.4% without test substance) was 4.9%. For the same compound, the “proportion of CD4-positive cells which expressed CD69” value ([10]; 28.8% without test substance) was 18.8%, the “proportion of CD4-negative cells which expressed CD69” value ([10]; 50.9% without test substance) was 17.7% and the IC50 [11] was 953 nM. The “Survival Rate after 72 Hours” value ([12]; 50 mg/kg oral) was 60% and the “Survival Rate after 72 Hours” value ([12]; 100 mg/kg oral) was 83%.
